What all share (experiment): NCI tumour cell line growth inhibition, 48 h
Test [1] concerns NCI-H226 lung.
In test [2] the test system is SK-MEL-2 melanoma.
In test [3] the test system is HT29 colon.
In test [4] the test system is SNB-75 CNS.
Test [5] deals with UACC-62 melanoma.
Test [6] relates to HCC-2998 colon.
Test [7] concerns U251 CNS.
In test [8] the test system is LOX IMVI melanoma.
Test [9] relates to SR leukemia.
The subject of test [10] is SNB-19 CNS.

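In this assay, cells in 96-well plates receive the compound at five concentrations for 48 hours. Endpoints are linearly interpolated between the surrounding concentrations. GI50: concentration for 50% inhibition of growth. TGI: concentration producing complete growth inhibition.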 A value given as a limit tells only on which side of the number the result lay.

Turning to `COc1ccccc1/C=C/C(=O)c1sc(-c2cccnc2)nc1C`, the TGI in [1], in test [2], in test [3], in [4], in [5] and in test [6] was greater than 100 µM in each case. The TGI in test [7] and in [8] was greater than 100 µM in each case.

As to `CC(C)C1C(=O)N2CCCC2C2(O)OC(NC(=O)C3C=C4c5cccc6[nH]cc(c56)CC4N(C)C3)(C(C)C)C(=O)N12` (configuration not stated), the TGI in test [9] is 68.3 µM; in test [2], 42.4 µM; in [10] it was greater than 100 µM; in test [3] it was 37.5 µM; in [4], 76.7 µM; in test [5] it was 55.7 µM. Moreover, the TGI is 42.9 µM in test [6], 70.3 µM in test [7] and 34.8 µM in test [8].

As for `C[C@H]1CCC/C=C/[C@@H]2C[C@H](O)C[C@H]2[C@H](O)[C@H](S(=O)c2ccc(O)cc2)CC(=O)O1` (some centres not stated), the GI50 in test [1] was 0.0344 µM; in [2], 0.0485 µM; in test [10], 0.187 µM; in test [4], less than 0.018 µM; in [5], 0.0349 µM; in test [6], 0.0278 µM. Besides, the figures for the GI50 in test [7] and in [8] were 0.0403 µM and 0.0208 µM, respectively. For the same compound, the TGI in test [1] is 0.146 µM; in test [2], 0.504 µM; in test [10], greater than 100 µM; in [4] it was greater than 100 µM; in test [5] it was greater than 100 µM; in test [6], 0.0951 µM. Besides, the TGI in test [7] was greater than 77.4 µM; in [8] it was 0.0533 µM.

Consider `O=C(O)/C(Cl)=C(\Cl)Nc1cccc(C(F)(F)F)c1`, for which the TGI in [3], in [4], in [5], in [6], in [7] and in test [8] was greater than 100 µM throughout.

Take `COc1ccc(OC)c(/C=C/c2nnc(Nc3ccc(Cl)cc3)o2)c1`: the GI50 in test [9] was 48.2 µM; in test [2], 9.66 µM; in [10] it was 13.8 µM; in test [3], 9.44 µM; in test [4], 2.26 µM; in test [5] it was 16.2 µM. The GI50 in [6] was greater than 100 µM; in test [7] it was 3.81 µM; in test [8], 7.91 µM. For the same compound, the TGI in test [9] was greater than 100 µM; in test [2], greater than 100 µM; in [10] it was greater than 100 µM; in test [3], 28.3 µM; in test [4] it was 7.94 µM; in [5], greater than 100 µM. In addition, the TGI in [6] is greater than 100 µM; in test [7], 14.3 µM; in [8], greater than 100 µM.

For `CCc1ccc(C2=C/C(=C/c3ccc(Cl)cc3)C(=O)N2CCc2ccc(S(N)(=O)=O)cc2)cc1`, the GI50 is 2.37 µM in test [1]; 2.27 µM in test [2]; 2.98 µM in test [10]; 2.22 µM in test [3]; 2.79 µM in test [4]; 1.82 µM in test [5]. In addition, the GI50 in [6] is 2.59 µM; in test [7], 2 µM. Also, the TGI is 6.34 µM in [1]; 7.76 µM in test [2]; 13.7 µM in [10]; 4.58 µM in test [3]; 12.9 µM in test [4]; 6.22 µM in test [5]. Further, the TGI in test [6] is 7.2 µM; in [7] it was 4.2 µM.

In the case of `CCc1ccccc1NC(=O)/C(CC(=O)c1c(C)n([O-])c2ccccc2[n+]1=O)=N\NS(=O)(=O)c1ccc(C)cc1`, the TGI is 42.8 µM in test [9]; greater than 100 µM in [1]; greater than 100 µM in test [2]; greater than 100 µM in test [10]; greater than 100 µM in test [3]; greater than 100 µM in [4]. Besides, the TGI in [5] is 67 µM; in test [6] it was greater than 100 µM; in test [7], greater than 100 µM.

On to `C/C(CC(=O)CCCC(=O)Nc1ccc(Cl)cc1Cl)=N/NC(=O)CC#N`, for which the TGI in [1], in test [2], in [10], in [3], in [4] and in test [5] was greater than 100 µM throughout. Moreover, the TGI in test [6], in test [7] and in test [8] was greater than 100 µM in each case.

Regarding `CCN1C(=O)N(CC)C2C1NN=c1s/c(=C3\C(=O)N(CCC(C)C)c4ccccc43)c(=O)n12` (configuration not stated), the GI50 in [9] was 0.456 µM; in test [1], 2.52 µM; in test [2] it was 2.32 µM; in [10], 2.39 µM; in test [4], 0.802 µM; in test [5] it was 0.607 µM. The GI50 in [6] was 1.92 µM; in [7], 1.88 µM. In addition, the TGI in test [9] was greater than 100 µM; in [1] it was 7.69 µM; in test [2], 11.4 µM; in [10], 11.5 µM; in test [4], 2.5 µM; in test [5], 8.04 µM. Further, the figures for the TGI in test [6] and in test [7] were 4.54 µM and 9.81 µM, respectively.

For `CN1CCC23c4c5ccc(O)c4OC2C(=NN=C2CCC4(O)C6Cc7ccc(O)c8c7C4(CCN6C)C2O8)CCC3(O)C1C5` (configuration not stated), the TGI in test [1], in test [2], in test [10], in [3], in test [4] and in test [5] was greater than 100 µM throughout. Besides, the TGI in test [6], in test [7] and in [8] was greater than 100 µM throughout.

For the compound `Cc1nc(NC(=S)NC(=O)c2ccc(Cl)c(Cl)c2)sc1C(=O)/C=C/c1ccccc1[N+](=O)[O-]`, the TGI in test [9] was 63.1 µM; in test [2], 44.4 µM; in test [10], 46.9 µM; in [3], 46 µM; in [5] it was 28.5 µM; in test [6] it was greater than 100 µM. The TGI in test [7] was 32.9 µM; in [8], 34.3 µM.

Consider `CN1C(=O)n2c(nc3ccccc32)C(N=[N+]=[N-])(N=[N+]=[N-])C1=O` (configuration not stated), for which the TGI in [1], in [2], in test [10], in [3], in [4] and in test [5] was greater than 100 µM throughout. Further, the TGI in test [6], in test [7] and in [8] was greater than 100 µM throughout.

On to `CC(C#N)c1cn(S(=O)(=O)c2ccccc2)c2ccccc12` (configuration not stated), for which the TGI in test [9] is greater than 100 µM; in [1], greater than 100 µM; in test [2], greater than 100 µM; in test [10], greater than 100 µM; in test [3], greater than 100 µM; in test [4], 38.2 µM. Further, the TGI in [5], in [6] and in test [7] was greater than 100 µM throughout.

For `C[C@H](c1ccc(Cl)cc1N)N1C(=O)c2cc(I)ccc2N(CCCN2CCN(C)CC2)C(=O)[C@@H]1c1ccc(Cl)cc1`, the GI50 in test [9] is 1.01 µM; in test [1], 1.33 µM; in test [2] it was 1.81 µM; in test [10], 1.52 µM; in test [3], 1.82 µM; in [5], 1.23 µM. Besides, the results for the GI50 in test [6] and in [7] were 1.63 µM and 1.52 µM, respectively. The TGI in [9] amounted to 2.6 µM; in test [1], 2.86 µM; in [2] it was 3.37 µM; in [10] it was 2.9 µM; in test [3] it was 3.47 µM; in [5], 2.54 µM. Further, the TGI is 3.03 µM in [6] and 2.85 µM in test [7].

With `CCCCCCCCN(CCCCCCCC)C(=N)c1ccnc2ccccc12`, the GI50 in test [2] was 1.78 µM; in test [10] it was 1.55 µM; in test [3], 0.292 µM; in [4] it was 1.01 µM; in [5], 1.25 µM; in [7] it was 1.23 µM. The TGI stood at 3.35 µM in test [2]; 3.17 µM in test [10]; 1.06 µM in test [3]; 2.36 µM in [4]; 2.65 µM in test [5]; 2.58 µM in [7].

As to `CC1(C)CC23C(=O)N(c4ccccc4)C(=Nc4ccccc4)NC2=CC(C#N)=C(C#N)C3O1` (configuration not stated), the TGI in test [1] is 88.8 µM; in test [2] it was greater than 100 µM; in test [10], greater than 100 µM; in test [3], greater than 100 µM; in [4], greater than 100 µM; in test [5], greater than 100 µM. The TGI in [6], in test [7] and in test [8] was greater than 100 µM throughout.

Consider `COC1=CC(=O)c2ccc(C(C)C)cc2C1(C)C1=NC(C)(C)CO1` (configuration not stated), for which the TGI in test [9], in test [1], in test [2], in [10], in test [3] and in test [4] was greater than 100 µM throughout. For the same compound, the TGI in [5] and in [7] was greater than 100 µM in each case.

For `COc1ccc2[nH]c3c4c(c5cc(C(C)(C)C)ccc5c3c2c1)C(=O)N(c1ccccc1)C4=O`, the TGI in test [1], in [2], in test [10], in test [3], in [4] and in [5] was greater than 100 µM in each case. For the same compound, the figures for the TGI in test [6], in test [7] and in [8] were 47.4 µM, greater than 100 µM and greater than 100 µM, respectively.

For the compound `CON(C)C(=O)C(Cc1ccccc1)NC(=O)OC(C)(C)C` (configuration not stated), the TGI in test [9], in test [1], in test [10], in test [3], in [4] and in test [5] was greater than 100 µM in each case. Also, the TGI in test [6] and in test [7] was greater than 100 µM in each case.

Regarding `CC(=O)CC(=O)N(CCN(C(=O)CC(C)=O)c1ccccc1)c1ccccc1`, the TGI in test [1], in test [2], in [10], in [4], in test [5] and in test [6] was greater than 100 µM each time. The TGI in [7] and in test [8] was greater than 100 µM throughout.

Take `CC1(C)CCC(=O)c2c(O)ccc(O)c21`: the TGI is greater than 100 µM in [1]; greater than 100 µM in test [2]; greater than 100 µM in test [10]; greater than 100 µM in [3]; 98.3 µM in test [4]; greater than 100 µM in test [5]. Further, the TGI in test [6] and in test [7] was greater than 100 µM each time.

As for `O=C1C(=O)c2cc([N+](=O)[O-])ccc2-c2ccccc21`, the GI50 in [1] is 1.78 µM; in test [2], 1.55 µM; in test [10], 1.6 µM; in [3], 1.95 µM; in test [4], 1.47 µM; in [5], 1.7 µM. The GI50 was 1.77 µM in test [6], 1.35 µM in test [7] and 1.22 µM in test [8]. Further, the TGI in test [1] was 3.27 µM; in [2] it was 3.05 µM; in test [10] it was 3 µM; in test [3], 3.9 µM; in test [4], 2.8 µM; in [5] it was 3.13 µM. In addition, the TGI in test [6] is 3.18 µM; in [7], 2.7 µM; in test [8] it was 2.48 µM.

On to `CS(=O)(=O)c1ccc(N/N=C/c2c(-c3ccc(S(C)(=O)=O)cc3)[nH]c3ccc(F)cc23)cc1`, for which the GI50 in test [2] was 1.74 µM; in test [10], 2.36 µM; in test [3], 2.08 µM; in [4], 1.52 µM; in test [5], 1.91 µM; in test [6] it was 10.8 µM. In addition, the GI50 is 1.47 µM in [7] and 1.24 µM in test [8]. The TGI in test [2] was 4.73 µM; in test [10] it was greater than 50 µM; in [3] it was greater than 50 µM; in test [4], 40 µM; in [5] it was greater than 50 µM; in test [6] it was greater than 50 µM. In addition, the TGI in test [7] is greater than 50 µM; in test [8], 3.64 µM.

In the case of `CCCCCCCCCOC(=S)NC`, the TGI in [2] was 41 µM; in test [10], greater than 100 µM; in test [3] it was 42.2 µM; in test [4], 73.7 µM; in [5], 53.9 µM; in test [6], 35.3 µM. For the same compound, the results for the TGI in test [7] and in [8] were 31.5 µM and 35.5 µM, respectively.

The values above are taken from PubChem BioAssay (NCI).
